Reference: patent US5663151A, “Sulfated α-glycolipid derivatives as cell adhesion inhibitors” (Bristol-Myers Squibb Company, priority 1995, dated 1997)

Experiments:
P-selectin Rg = target: T1, P-selectin Rg (Homo sapiens, UniProt P16109); assay: HL-60 cell binding to P-selectin Rg; assay type: cell-based; settings: HL-60 cells, binding to P-selectin Rg coated wells
T1 construct: consists of the human lectin domain, the EGF domain, and two complement repeats of the human selectins; made in house
T1 sequence (P16109 with tags, fused parts or gaps limits assumed): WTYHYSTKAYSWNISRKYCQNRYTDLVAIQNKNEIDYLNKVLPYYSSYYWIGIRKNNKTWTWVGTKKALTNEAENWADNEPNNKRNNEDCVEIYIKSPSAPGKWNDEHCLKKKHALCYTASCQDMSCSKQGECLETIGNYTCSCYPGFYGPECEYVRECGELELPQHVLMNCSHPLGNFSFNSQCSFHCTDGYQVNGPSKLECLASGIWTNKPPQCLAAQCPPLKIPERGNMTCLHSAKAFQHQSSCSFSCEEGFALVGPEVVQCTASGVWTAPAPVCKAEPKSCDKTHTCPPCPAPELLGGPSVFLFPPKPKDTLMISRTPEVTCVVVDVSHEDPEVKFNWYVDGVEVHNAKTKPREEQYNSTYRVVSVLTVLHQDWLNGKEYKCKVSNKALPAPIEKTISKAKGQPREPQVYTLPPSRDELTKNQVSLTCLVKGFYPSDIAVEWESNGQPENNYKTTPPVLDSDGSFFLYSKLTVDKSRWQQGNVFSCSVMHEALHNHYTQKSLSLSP
Experimental: 2. HL-60 Cell Binding to P- and E-Selectin RG
The chimeric P- and E-selectin receptor globulin (Rg) consists of the human lectin domain, the EGF domain, and two complement repeats of the human selectins fused to the hinge, CH1 and CH2 domains of human IgG1. These proteins were prepared as described by Aruffo, et al., Cell (1991) 67: 35-44; Walz, et al., Science (1990) 250, 1132-1135.
The HL-60 cell line, obtained from the American Type Culture Collection, ATCC No. CCL240, was employed to investigate P-selectin Rg binding. Assays were done in 96-well tissue culture dishes. The wells were first coated with 0.5 ug goat anti-human Fc antiserum overnight, and nonspecific binding sites were blocked by incubation of the wells with 1% nonfat dry milk in phosphate buffered saline (PBS containing 0.9 mM CaCl2 and 0.8 mM MgSO4) for 30 minutes. The Rg was then bound to the anti Fc-coated wells by incubating 50 ng in 50 ul of PBS for two hours. Cells, washed twice and resuspended in PBS to remove traces of medium components, were labeled with 10 uM calcein acetoxy methyl ester for 30 minutes at 3×10^7 cells per ml at room temperature. Serum-containing medium (RPMI with 20% fetal calf serum) was added, and the cells washed, followed by resuspension in PBS and a further spin. The labeled cells, resuspended in PBS, were added to twice washed Rg-containing wells at 200,000 per well. Following a 30 minute incubation with slow shaking, the wells were aspirated and washed three times with PBS to remove unbound cells. To certain wells were added known numbers of cells for determination of a standard curve of fluorescent units per cell. The fluorescence on the plate was quantitated using a fluorescent plate reader. Following subtraction of a blank representing the binding of cells to non-Rg containing wells (<5000 cells), the specific binding to P- or E- selectin was determined.
Inhibitors of cell binding
Test compounds were prepared by dissolution to a final concentration of 20 mg/ml in dimethyl sulfoxide (DMSO), diluted in PBS to 2 mg/ml, and briefly sonicated prior to use. The Rg coated wells were preincubated at room temperature for 15 minutes with the inhibitor, and 200,000 cells were added to yield the final indicated inhibitor concentration in 160 ul of PBS. The data is obtained as percent inhibition of specific binding: [formula] and a plot of dose vs. percent inhibition of Rg binding is generated in which IC50 (μM) is calculated and reported in Table 1.

rats = assay: Reverse passive Arthus reaction (RPA) in rats; assay type: in vivo, Male Sprague Dawley rats; settings: 3 mg single dose IV, 4 hours; for RPA MPO % Inhib.: myeloperoxidase; for RPA VP % Inhib.: vascular permeability
Source text: 3. Reverse Passive Arthus Reaction in Rats
The reverse passive Arthus reaction in rats is a modification of the method by Mulligan et al., as described in J. Clin. Invest. (1991) 88: 1396-1406. This is an experimental model in which the interaction of antigen-antibodycomplexes and complement leads to a severe vasculitis that is associated with edema, induration, erythema and hemorrhage. The interaction between the antigen-antibody complexes and complement leads to a localized influx of neutrophils. These neutrophils release a variety of mediators that are associated with tissue damage and vascular permeability. The localized inflammatory reaction is measured using different techniques i.e., vascular permeability and neutrophil influx which is evaluated both biochemically and microscopically.
Male Sprague Dawley specific pathogen-free rats with jugular vein cannulae (280-320 g, Hill Top Labs, Pa.) are used in these studies. Animals are acclimated for at least 1 day and individually housed in stainless steel cages. The dorsal region of the rats is closely clipped 2 days prior to the experiments and divided into 4 sites on each side of the midline. Prior to all injections the rats are sedated with 0.4 ml per 300 gm rat of ketamine/rompun [1000 mg (10 ml) of ketamine HCL is mixed with 40 mg (2.0 ml) Rompun] administered IP and or inhalation anesthesia with metafane (methoxyflurane).
Bovin Serum Albumin (BSA) and rabbit polyclonal IgG rich in anti-BSA are purchased from Sigma Chemical Co. (St. Louis, Mo.). Radiolabelled ^125 I-BSA (spAct 1-5 μCi/μg) is purchased from Dupont NEN (Boston, Mass.).
Each rat is administered intradermal (ID) injection of (0.4 mg, 0.6 mg and 0.8 mg) anti-BSA in a volume of 100 μl per injection in normal saline. The ID injections are randomized near the mid dorsal region on both sides of the back bone. Immediately after the ID injections of the anti-BSA, the rats are administered intravenous (IV) injections of BSA (10 mg in 1.0 ml) in normal saline containing ^125 I labeled BSA (1 μCi/ml BSA or 5.0 μCi/kg body wt) for quantification of dermal vascular injury. Anti-inflammatory agents such as inhibitors of adhesion molecules of the present invention are administered IV at a single dose of 3 mg immediately after BSA. Four (4) hours after the IV injection of BSA, the rats are anesthetized with metafane and 2 to 3 ml of blood is withdrawn via the cannula into an anticoagulant containing (EDTA or Heparin) tube and plasma separated and saved for neutrophil and albumin quantitation. The rats are killed and the skin surrounding the injection site (15 mm diameter) is punched out and weighed. The skin samples and a fixed volume of plasma (0.1 to 1.0 ml) is analyzed in a gamma-counter for ^125 I content. Skin samples from the contralateral side are processed and analyzed for myeloperoxidase activity (MPO) as a measure of neutrophil accumulation. As needed, samples are also processed for histological evaluation of the reacted sites.
Vascular Permeability (VP)
The calculation of the plasma protein exudation into skin is made by determining the radioactivity in the tissue and relating this to the level of radioactive albumin in the blood at the time of sacrifice. […] [formula]
Percent inhibition of the test compound at 3 mg was determined as follows: [formula] Myeloperoxidase (MPO)
MPO is located in the azurophil granules of polymorphonuclear leukocytes (PMN). Because of its abundance in these cells (5% dry weight), this enzyme is used as a marker for tissue neutrophil content. For tissue MPO content, the method of Bradley, et al., was used as described in J. Invest. Dermatol. (1982) 78: 206-209. Biopsies from each treatment group were placed in plastic tubes (15×100 mm) containing 10 ml of 0.5% hexadecyltrimethylammonium bromide (HTAB) in 0.05M potassium phosphate buffer pH 6.0. The tissue was then homogenized with a Brinkmann Polytron homogenizer (10s). […]

P-selectin [1] = target: T2, P-selectin (Homo sapiens, UniProt P16109); assay: P-selectin binding ELISA to immobilized sulfatides (cell free); settings: inhibition of P-selectin binding to immobilized sulfatide
T2 construct: consists of the human lectin domain, the EGF domain, and two complement repeats of the human selectins; made in house
T2 sequence (P16109 with tags, fused parts or gaps limits assumed): as above
Experimental: Based on the availability of soluble forms of P-selectin prepared as described by Aruffo, A., et al., Cell, 67, 35-44 (1991), a binding ELISA based assay modified from Foxall, et al., J., Cell Biol., 117, 895-902 (1992) was developed to measure inhibitors of P-selectin binding to immobilized sulfatides. Such inhibitors were tested in the assay described below.
0.1 ml of sulfatide (SIGMA) or lysosulfatide (SIGMA) each at 1 μg/ml in MeOH were added to the wells of a 96-well ELISA plate (ProBind, Falcon) and allowed to dry overnight at room temperature. The next day the antigen coated plates were blocked for 1.5 hours at room temperature with 5% BSA (ICN) in buffer containing 20 mM Hepes and 0.15M NaCl, pH 8.0. Wild type P-selectin and mutants thereof were first mixed with HRP-conjugated goat anti-human lgG (Fisher Scientific), serially diluted and then incubated for 30 minutes at 37° C. in buffer containing 20 mM Hepes, 0.15M NaCl, 1% BSA and 0.8 mM CaCl2, pH 8.0 prior to addition to the BSA blocked plates. Following the 30 minute preincubation, the fusion protein-HRP conjugate immunocomplexes were incubated on the blocked antigen coated plates for 45 minutes at 37° C. in the presence or absence of the test compounds and then washed to remove any unbound proteins. Bound complexes were detected by addition of substrate buffer (95 mM NaOAc.3H2 O, 5 mM citric acid monohydrate, 1.4 mM urea/H2O2) containing 3, 3', 5, 5' Tetramethylbenzidine (SIGMA). Reactions were stopped by the addition of 3N sulfuric acid and the absorbance read on an ELISA reader at dual wavelengths 450 and 630 nm. The efficacy of these compounds was compared to that of sulfatide (positive control) or to lysosulfatide (negative control). The data is obtained as percent inhibition of specific binding [formula] and a plot of dose vs. percent inhibition of Rg binding is generated in which IC50 (μM) is calculated and reported as cell free data in Table 1.

P-selectin [2] = settings: Skinner et al.; cited from earlier work

Molecule | IC50 (P-selectin Rg) | IC50 (P-selectin [1]) | RPA MPO % Inhib. (rats) | RPA VP % Inhib. (rats) | inhibit P-selectin mediated adhesion (P-selectin [2])
CCCCCCCCCCCCC/C=C/[C@@H](OC(=O)c1ccccc1)[C@H](CO[C@H]1O[C@H](COS(=O)(=O)O)[C@H](OS(=O)(=O)O)[C@H](OC(=O)c2ccccc2)[C@H]1OC(=O)c1ccccc1)NC(=O)CCCCCCCCCCCCCCC [Example 1, (2S,3R,4E)-3-Benzoyloxy-2-hexadecanoylamino-1-[2,3-di-O-benzoyl-4,6-di-O-(sodiumoxysulfonyl)-α-D-galactopyranosyloxy]-4-octadecene] | 8.3 µM | 0.3 µM | 97% | 68% | 
CCCCCCCCCCCCC/C=C/[C@@H](O)[C@H](CO[C@H]1O[C@H](COS(=O)(=O)O)[C@H](OS(=O)(=O)O)[C@H](O)[C@H]1O)NC(=O)CCCCCCCCCCCCCCC [Example 2, (2S,3R,4E)-3-Hydroxy-2-hexadecanoylamino-1-[4,6-di-O-(sodiumoxysulfonyl)-α-D-galactopyranosyloxy]-4-octadecene] | 17 µM | 0.2 µM | 0% | 14% | 
CCCCCCCC/C=C\CCCCCCCCCCCCCC(=O)N[C@@H](CO[C@H]1O[C@H](COS(=O)(=O)O)[C@H](OS(=O)(=O)O)[C@H](O)[C@H]1O)[C@H](O)/C=C/CCCCCCCCCCCCC [Example 4, (2S,3R,4E)-3-Hydroxy-2-(cis-15-tetracosenoylamino)-1-[4,6-di-O-(sodiumoxysulfonyl)-α-D-galactopyranosyloxy]-4-octadecene] | 8 µM | 9 µM |  |  | 
dextran sulfate |  |  |  |  | inhibit P-selectin mediated adhesion
fucoidan |  |  |  |  | inhibit P-selectin mediated adhesion

More lines, main results first:

IC50 (P-selectin Rg) | IC50 (P-selectin [1]) | Molecule | RPA MPO % Inhib. (rats) | RPA VP % Inhib. (rats) | inhibit P-selectin mediated adhesion (P-selectin [2])
11 µM | ~0.4 µM | CCCCCCCCCCCCC/C=C/[C@@H](OC(=O)c1ccccc1)[C@H](CO[C@H]1O[C@H](COS(=O)(=O)O)[C@@H](OS(=O)(=O)O)[C@H](OC(=O)c2ccccc2)[C@H]1OC(=O)c1ccccc1)NC(=O)CCCCCCCCCCCCCCC [Example 7, (2S,3R,4E)-3-Benzoyloxy-2-hexadecanoylamino-1-[-2,3-di-O-benzoyl-4,6-di-O-(sodiumoxysulfonyl)-α-D-glucopyranosyloxy]-4-octadecene] | 97% | 88% | 
8 µM | > 6.1 µM | CCCCCC/C=C/[C@@H](OC(=O)c1ccccc1)[C@H](CO[C@H]1O[C@H](COS(=O)(=O)O)[C@H](OS(=O)(=O)O)[C@H](OC(=O)c2ccccc2)[C@H]1OC(=O)c1ccccc1)NC(=O)CCCCC [Example 10, (2S,3R,4E)-1-[2,3-di-O-benzoyl-4,6-Di-O-(sodiumoxysulfonyl)-α-D-galactopyranosyloxy]-3-benzoyloxy-2-hexanoylamino-4-undecene] | 71.6% | 11% | 
8.9 µM | 1.7 µM | CCCCCCCCCCCCC/C=C/[C@@H](OC(=O)c1ccccc1)[C@H](CO[C@H]1O[C@H](COS(=O)(=O)O)[C@H](OS(=O)(=O)O)[C@H](OCc2ccccc2)[C@H]1OCc1ccccc1)NC(=O)CCCCCCCCCCCCCCC [Example 11, (2S,3R,4E)-2-Hexadecanoylamino-3-benzoyloxy-1-[2,3-di-O-benzyl-4,6-di-O-(sodiumoxysulfonyl)-α-D-galactopyranosyloxy]-4-octadecene] | 53.7% | 32% | 
5.2 µM | 2.2 µM | CCCCCCCCCCCCC/C=C/[C@@H](OC(=O)c1ccccc1)[C@H](CO[C@H]1O[C@H](COS(=O)(=O)O)[C@H](O)[C@H](O)[C@H]1OS(=O)(=O)O)NC(=O)CCCCCCCCCCCCCCC [Example 15, (2S,3R,4E)-3-Benzoyloxy-2-hexadecanoylamino-1-[2,6-di-O-(sodiumoxysulfonyl)-α-D-galactopyranosyloxy]-4-octadecene] | 0% | 50% | 
2.6 µM | > 8 µM | CCCCCCCCCCCCC/C=C/[C@@H](OC(=O)c1ccccc1)[C@H](CO[C@H]1O[C@H](COS(=O)(=O)O)[C@H](OS(=O)(=O)O)[C@H](OS(=O)(=O)O)[C@H]1OS(=O)(=O)O)NC(=O)CCCCCCCCCCCCCCC [Example 23, (2S,3R,4E)-3-Benzoyloxy-2-hexadecanoylamino-1-[2,3,4,6-tetra-O-(sodiumoxysulfonyl)-α-D-galactopyranosyloxy]-4-octadecene] | 26.4% | 0% | 
